Measured values as given in patent publication US20210238170A1, “5,5-Difluoro- and 5-Fluoro-5-Methyl-C-Glycoside Derivatives Useful As Dual SGLT1 / SGLT2 Modulators” (Janssen Pharmaceutica NV, priority 2018, published 2021).

Key:
[1] = test system: db/db mice; experiment: SGLT inhibition evaluated in db/db mice: fed blood glucose AUC and 24-hr urine glucose excretion; type: in vivo, mouse; conditions: oral dose 10 mg/kg, mean ± SE, n = 8; for 24-hr Blood Glucose AUC vs Vehicle (%): fed
Description: Biological Example 3: In Vivo Assay
SGLT Inhibition Evaluated in db/db Mice
Based on fed blood glucose levels, db/db mice were allocated into either vehicle or test compound treated groups (n=8 in each group). After grouped, the mice were orally dosed with either vehicle or test compound at 0 and 10 mg/kg, in a volume of 10 ml/kg. The mice were then immediately transferred into mouse metabolic cages, after they were dosed. Fed blood glucose levels were determined at multiple timepoints after the animals were treated. Fed blood glucose AUC (area under the curve of blood glucose) was determined from the blood glucose levels measured at the timepoints.
Table 10 below, presents the measured efficacy of the test compound(s), expressed as a percentage (%) of blood glucose AUC vs that in vehicle group. The data is interpreted such that, the smaller the percentage of blood glucose AUC of compound vs vehicle, the greater efficacy of the test compound. Total urine glucose excretion (UGE) over the 24-hr period post treatment was calculated based on urine glucose concentrations and urine volumes at multiple timepoints. Urine glucose was measured using Olympus system with Genzyme diagnostics assay reagent.

[2] = target: T1, human SGLT1 (Homo sapiens, UniProt P13866); experiment: SGLT1 in vitro assay: Na-dependent 14C-AMG uptake in CHO-K1 cells stably expressing human SGLT1; type: cell-based; conditions: CHO-K1 cells stably expressing human SGLT1, 14C-AMG uptake; for inhibition at 0.3 µM: read-out: SGLT1 % Inh @ 0.3 μM; for IC50: compounds of formula (I) where R0 is fluoro
T1 construct: expressed in transfected cells
T1 sequence (P13866 1-664): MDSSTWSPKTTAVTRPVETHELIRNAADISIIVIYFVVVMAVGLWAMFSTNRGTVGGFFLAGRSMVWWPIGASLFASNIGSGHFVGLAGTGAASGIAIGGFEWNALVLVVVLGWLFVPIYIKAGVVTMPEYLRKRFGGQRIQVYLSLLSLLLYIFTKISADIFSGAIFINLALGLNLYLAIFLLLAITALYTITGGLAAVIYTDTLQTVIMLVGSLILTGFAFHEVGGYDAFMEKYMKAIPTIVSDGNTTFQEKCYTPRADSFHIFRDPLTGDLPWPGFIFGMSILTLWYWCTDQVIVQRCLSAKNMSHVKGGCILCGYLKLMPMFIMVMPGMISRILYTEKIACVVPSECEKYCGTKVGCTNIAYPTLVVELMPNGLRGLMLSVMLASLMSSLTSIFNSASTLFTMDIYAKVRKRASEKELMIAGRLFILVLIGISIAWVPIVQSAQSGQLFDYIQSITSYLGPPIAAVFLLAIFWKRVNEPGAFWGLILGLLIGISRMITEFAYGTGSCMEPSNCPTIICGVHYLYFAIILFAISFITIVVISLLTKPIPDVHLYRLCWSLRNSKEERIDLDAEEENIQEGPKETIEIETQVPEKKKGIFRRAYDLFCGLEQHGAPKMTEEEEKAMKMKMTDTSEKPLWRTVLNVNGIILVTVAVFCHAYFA
How it was run: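 CHO-K1 cells stably expressing human SGLT1 or SGLT2, induced with 10 mM Na-butyrate for 24 h. Compounds (0.001–10 μM) in Na+-containing HEPES/Tris buffer pH 7.4 were applied for 10 min, then 14C-AMG ([…]) for 2 h at 37°C; Na-dependent uptake read by scintillation; %-inhibition or IC50.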

| inhibition at 0.3 µM [2] | IC50 [2] | SMILES | 24-hr Blood Glucose AUC vs Vehicle (%) [1] | Urine Glucose Excretion (g/24 hr) [1] |
| --- | --- | --- | --- | --- |
| 76.6% | 34 nM | COc1ccc(Cc2cc([C@@H]3O[C@H](CO)C(F)(F)[C@H](O)[C@H]3O)c(O)cc2Cl)cc1 [Compound 81, (2S,3R,4R,6R)-2-(4-chloro-2-hydroxy-5-(4-methoxybenzyl)phenyl)-5,5-difluoro-6-(hydroxymethyl)-tetrahydro-2H-pyran-3,4-diol] | 55.0 ± 4.6% |  |
| 56.2% | 96 nM | COc1cc(O)c([C@@H]2O[C@H](CO)C(F)(F)[C@H](O)[C@H]2O)cc1Cc1ccc2c(c1)CCCO2 [Compound 44, (2S,3R,4R,6R)-2-(5-(chroman-6-ylmethyl)-2-hydroxy-4-methoxyphenyl)-5,5-difluoro-6-(hydroxymethyl)tetrahydro-2H-pyran-3,4-diol] | 48.4 ± 3.4% | 0.55 ± 0.12 g/24 hr |
